Experimental data as given in patent US11814623B2, “Methods of treating a wound using epigenetic regulation” (University of Massachusetts, priority 2018, dated 2023).

Columns and labels:
Dnmt1 = Dnmt1 expression in HSCs (qRT-PCR, Western blot); type: cell-based, mouse
Experimental: Quantification was performed using ImageJ software.
Total RNA was isolated using the mirVana miRNA isolation kit (Applied Biosystems). cDNA was synthesized using the QuantiMir RT Kit small RNA quantification system (SBI). qRT-PCR was performed as described previously. Mouse U6 was used as an endogenous control. The let-7d-3p mimic and inhibitor were purchased from Life Technologies (catalog numbers 4464066 and 4464084, respectively).

[1] = test system: mouse Dnmt1 3′ UTR region; test: Dnmt1 3' UTR luciferase reporter assay in HEK293T cells; type: cell-based; conditions: 48 h post-transfection, FIG. 8C
Experimental: (§1) HEK293T cells grown in 96-well plates were transfected with pmirGLO containing the Dnmt1 3′ UTR region that includes the let-7d-3p binding sites. The cells were co-transfected with let-7d-3p using Lipofectamine (Invitrogen). The Firefly and Renilla luciferase activities in the cell lysates were assayed with a Dual-Luciferase Reporter Assay System (Promega) at 48 h post-transfection. To generate the mutant variants, point mutations in the binding sites of let-7d-3p in the 3′-UTR region of Dnmt1 were introduced by PCR according to the site-directed mutagenesis protocol from Agilent. The two mutants that were generated are labeled “Dnmt1 M1” and “Dnmt1 M2”. The binding sequence of let-7d-3p in mouse Dnmt1 3′UTR is: […]

[2] = test system: Dnmt1 M1 and Dnmt1 M2 (mutated let-7d-3p binding sites in Dnmt1 3′ UTR); test: Mutant Dnmt1 3' UTR luciferase reporter assay in HEK293T cells; type: cell-based, mouse; conditions: FIG. 8C
Experimental: as §1

[3] = test system: Notch1, PU.1 and Klf4 genes; test: DNA methylation of Notch1, PU.1 and Klf4 by pyrosequencing; type: cell-based, mouse; conditions: db/db HSCs; FIG. 14A, FIG. 15, FIG. 16
Experimental: Genomic DNA was isolated by traditional phenol-chloroform extraction and isopropanol precipitation. DNA concentration was measured using a Nano Drop spectrophotometer. Around 500 ng genomic DNA were bisulfite converted by EZ DNA methylation-Gold kit following the manufacturer's instructions (Zymo Research). PCR amplification was performed using 2×HiFi Hotstart Uracil+ready mix PCR (Kapa Biosystems). PCR and pyrosequencing primer sets with one biotin-labeled primer were used to amplify the bisulfite converted DNA. Primers were designed using PyroMark Assay Design software version 2.0.1.15 (Qiagen). The size of the amplicons was 200 bp or less. Briefly, 5 μl master mix, […] of each primer, 20 ng genomic DNA and ultra-pure water to a final volume of 10 μl were mixed for each reaction and run at thermal cycling conditions: 95° C. for 3 min and then 50 cycles: 20 sec at 98° C.; 15 sec at the optimized primer-specific annealing temperature; 15 sec at 72° C. and a final extension for 1 min at 72° C. […] PyroGold reagents were used for the pyrosequencing reaction and the signal was analyzed using the PSQ 96MA system (Biotage, Uppsala, Sweden). Target CGs were evaluated by instrument software (PSQ96MA 2.1), which converts the pyrograms to numerical values for peak heights and calculates the methylation at each base as a C/T ratio.

[4] = test system: H3K9me2 and H3K9me3 at Klf4, PU.1 and Notch1 promoters; test: ChIP-PCR of H3K9 histone methylation at Notch1, PU.1 and Klf4; type: cell-based, mouse; conditions: db/db HSCs; FIG. 17B and FIG. 18
Experimental: 1×10^6 HSCs were sorted and cross-linked with 1% formaldehyde at room temperature for 10 min, and the reaction was stopped by adding Glycine to a final concentration of 0.125M and incubating at room temperature for 5 min. Cross-linked cells were lysed in lysis buffer and sonicated to 200-500 bp fragments (Bioruptor, Diagenode). The sonicated chromatin was centrifuged at 4° C. for 5 min. The cross-linked DNA was immunoprecipitated with H3K9me3, H3K9me2 or H3K9Ac antibodies (Millipore, USA) overnight at 4° C. with rotation, DNA-Antibody complexes were bound to ChIP beads, pulled down, washed and then eluted from the beads. Following reversal of cross-linkage, purified DNA was used for quantitative PCR using ChIP PCR primers purchased from IDT (MA, USA). Immunoprecipitation efficiency was calculated by normalizing sample CT values against control IgG values and calculating ratios of sample CT values relative to input values.

HSCs from db/db mice = test: Intracellular ROS (DCF) in HSCs of db/db mice given NAC; type: in vivo, mouse; conditions: NAC 150 mg/kg/day via drinking water for 8 weeks, FIG. 6A
Source text: 8-12 weeks old male C57BL/6J wild type (WT) and […] (db/db) mice were used in the studies. All mice were purchased from Jackson Laboratories and were maintained in mouse barrier facilities. Care and use of mice was in accordance with NIH guidelines and the Institutional Animal Care and Use Committee of the University of Massachusetts Medical School approved protocols. db/db and WT mice were fed standard chow diet (5.4 g/100 g diet, 0% cholesterol) and HFD mice were generated by feeding C57BL/6J mice a high fat diet (60% fat calories; Research Diet, New Brunswick, N.J.). N-acetylcysteine (NAC) was given for 8 weeks (150 mg/kg/day via drinking water. Whole bone marrow cells were flushed out from femurs and tibialis. Bone marrow cells were stained with antibodies for the identification of HSCs (c-Kit^+Scal^+lineage^-CD90.1^lo/-). The antibodies used were: c-Kit (1:50, eBioscience 12-1171, clone: 2B8), Sca-1 (1:50, eBioscience 11-5981, clone: D7), CD90.1 (1:50, eBioscience 45-0900, clone:[…]) and a lineage cocktail antibody (1:50, BD Bioscience 558074). As for the gating strategy for flow cytometry, we first gated on single, viable cells and eliminated any debris, dead cells and clumps or doublets. Next, gates were drawn on the c-Kitpositive/Scal-positive/lineage-negative/CD90.1^low-negative population for HSC sorting. […]

[5] = test system: bone marrow monocytes of db/db mice; test: CD115+CD11b+ monocyte concentration in bone marrow by flow cytometry; type: in vivo, mouse; conditions: NAC 150 mg/kg/day via drinking water for 8 weeks, FIG. 6C
Source text: 8-12 weeks old male C57BL/6J wild type (WT) and […] (db/db) mice were used in the studies. All mice were purchased from Jackson Laboratories and were maintained in mouse barrier facilities. Care and use of mice was in accordance with NIH guidelines and the Institutional Animal Care and Use Committee of the University of Massachusetts Medical School approved protocols. db/db and WT mice were fed standard chow diet (5.4 g/100 g diet, 0% cholesterol) and HFD mice were generated by feeding C57BL/6J mice a high fat diet (60% fat calories; Research Diet, New Brunswick, N.J.). N-acetylcysteine (NAC) was given for 8 weeks (150 mg/kg/day via drinking water.

Dnmt3a and DNMT3b = test: Dnmt3a and Dnmt3b expression in db/db HSCs (qRT-PCR, Western blot); conditions: FIGS. 7E-F

Compound | Dnmt1 expression in db/db HSCs (Dnmt1; db/db HSCs transfected, FIGS. 8F-G) | luciferase activity, intact 3′ UTR construct [1] | luciferase activity, let-7d-3p binding sites in Dnmt1 3′ UTR mutated [2] | methylation of Notch1, PU.1, Klf4 [3] | histone methylation levels (H3K9me2, H3K9me3) [4] | oxidant stress in HSCs (DCF positive cells) (HSCs from db/db mice) | monocyte concentration in bone marrow [5] | expression of DNMT1 in db/db HSCs (Dnmt1; db/db HSCs, compared with WT HSCs, FIGS. 7E-F) | mRNA or protein levels of Dnmt3a and DNMT3b (Dnmt3a and DNMT3b)
let-7d-3p mimic: let-7d-3p mimic purchased from Life Technologies (catalog number 4464066); microRNA that binds the Dnmt1 3′ UTR (guide CUAUACGACCUGCUGCCUUUCU; chemistry not given here) | decreased | significantly repressed | didn't affect | decreased | decreased | – | – | – | –
CC(=O)N[C@@H](CS)C(=O)O [N-acetylcysteine] | – | – | – | – | – | reversed | restored | restored | did not change
